{"source": "ChEMBL document CHEMBL1201862", "about": "“PubChem BioAssay data set” (2004)", "experiment_in_all_cases": "inhibition of tumour cell growth, NCI panel, 48 h", "key": {"[1]": {"system": "786-0"}, "[2]": {"system": "UACC-62"}, "[3]": {"system": "NCI-H460"}, "[4]": {"system": "OVCAR-8"}, "[5]": {"system": "HOP-62"}, "[6]": {"system": "IGROV-1"}, "[7]": {"system": "HCT-116"}, "[8]": {"system": "TK-10"}, "[9]": {"system": "COLO 205"}, "[10]": {"system": "CCRF-CEM"}, "[11]": {"system": "SN12C"}, "[12]": {"system": "XF498"}, "[13]": {"system": "U-251"}, "[14]": {"system": "SR"}, "[15]": {"system": "ACHN"}, "[16]": {"system": "K562"}, "[17]": {"system": "HCC 2998"}, "[18]": {"system": "MOLT-4"}, "[19]": {"system": "M14"}, "[20]": {"system": "M19-MEL"}, "[21]": {"system": "CAKI-1"}, "[22]": {"system": "KM-20L2"}, "[23]": {"system": "RPMI-8226"}, "[24]": {"system": "UACC-257"}, "[25]": {"system": "OVCAR-4"}, "[26]": {"system": "SF-539"}, "[27]": {"system": "DMS-273"}, "[28]": {"system": "UO-31"}, "[29]": {"system": "SNB-19"}, "[30]": {"system": "SF-295"}, "[31]": {"system": "SK-MEL-5"}, "[32]": {"system": "A549"}, "[33]": {"system": "SW-620"}, "[34]": {"system": "KM12"}, "[35]": {"system": "RXF 393"}, "[36]": {"system": "OVCAR-3"}, "[37]": {"system": "HT-29"}, "[38]": {"system": "Malme-3M"}, "[39]": {"system": "HCT-15"}, "[40]": {"system": "DLD-1"}, "[41]": {"system": "LXFL 529"}, "[42]": {"system": "SK-MEL-2"}, "[43]": {"system": "A498"}, "[44]": {"system": "LOX IMVI"}, "[45]": {"system": "SNB-75"}, "[46]": {"system": "EKVX"}, "[47]": {"system": "HL-60"}, "[48]": {"system": "SF-268"}, "[49]": {"system": "DMS-114"}, "[50]": {"system": "HOP-18"}, "[51]": {"system": "HOP-92"}, "[52]": {"system": "NCI-H522"}, "[53]": {"system": "SK-OV-3"}, "[54]": {"system": "OVCAR-5"}, "[55]": {"system": "NCI-H226"}, "[56]": {"system": "NCI-H23"}, "[57]": {"system": "SNB-78"}}, "note": "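Cells were grown in 96-well plates and exposed to each compound for 48 hours at five concentrations; endpoints were interpolated linearly between bracketing concentrations, or set to the highest concentration if not reached. Abbreviation: GI50, concentration required for 50% inhibition of growth.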 The source made the active and inactive calls. No stated cut-off is given here; in the data, active = GI50 up to about 1.1 µM and inactive = higher."}
{"smiles": "NC(=O)N/N=C(\\CC1OC(=O)c2ccccc21)c1ccc([N+](=O)[O-])cc1", "note": "(configuration not stated)", "values": [{"measurement": "GI50", "setting": "[1]", "result": "17.6 µM (inactive)"}, {"measurement": "GI50", "setting": "[2]", "result": "18.4 µM (inactive)"}, {"measurement": "GI50", "setting": "[3]", "result": "39.9 µM (inactive)"}, {"measurement": "GI50", "setting": "[4]", "result": "> 10 µM (inactive)"}, {"measurement": "GI50", "setting": "[5]", "result": "22.7 µM (inactive)"}, {"measurement": "GI50", "setting": "[6]", "result": "23.7 µM (inactive)"}, {"measurement": "GI50", "setting": "[7]", "result": "28.7 µM (inactive)"}, {"measurement": "GI50", "setting": "[8]", "result": "> 100 µM (inactive)"}, {"measurement": "GI50", "setting": "[9]", "result": "46.8 µM (inactive)"}, {"measurement": "GI50", "setting": "[10]", "result": "31.3 µM (inactive)"}, {"measurement": "GI50", "setting": "[11]", "result": "31 µM (inactive)"}, {"measurement": "GI50", "setting": "[12]", "result": "26.9 µM (inactive)"}, {"measurement": "GI50", "setting": "[13]", "result": "17.5 µM (inactive)"}, {"measurement": "GI50", "setting": "[14]", "result": "32.7 µM (inactive)"}, {"measurement": "GI50", "setting": "[15]", "result": "62.1 µM (inactive)"}, {"measurement": "GI50", "setting": "[16]", "result": "> 10 µM (inactive)"}, {"measurement": "GI50", "setting": "[17]", "result": "18 µM (inactive)"}, {"measurement": "GI50", "setting": "[18]", "result": "27.7 µM (inactive)"}, {"measurement": "GI50", "setting": "[19]", "result": "34 µM (inactive)"}, {"measurement": "GI50", "setting": "[20]", "result": "26.5 µM (inactive)"}, {"measurement": "GI50", "setting": "[21]", "result": "23.6 µM (inactive)"}, {"measurement": "GI50", "setting": "[22]", "result": "29.2 µM (inactive)"}, {"measurement": "GI50", "setting": "[23]", "result": "31.3 µM (inactive)"}, {"measurement": "GI50", "setting": "[24]", "result": "67.3 µM (inactive)"}, {"measurement": "GI50", "setting": "[25]", "result": "39.5 µM (inactive)"}, {"measurement": "GI50", "setting": "[26]", "result": "21.5 µM (inactive)"}, {"measurement": "GI50", "setting": "[27]", "result": "28.1 µM (inactive)"}, {"measurement": "GI50", "setting": "[28]", "result": "76.6 µM (inactive)"}, {"measurement": "GI50", "setting": "[29]", "result": "20.7 µM (inactive)"}, {"measurement": "GI50", "setting": "[30]", "result": "68.4 µM (inactive)"}, {"measurement": "GI50", "setting": "[31]", "result": "23.1 µM (inactive)"}, {"measurement": "GI50", "setting": "[32]", "result": "38.7 µM (inactive)"}, {"measurement": "GI50", "setting": "[33]", "result": "35.7 µM (inactive)"}, {"measurement": "GI50", "setting": "[34]", "result": "32.5 µM (inactive)"}, {"measurement": "GI50", "setting": "[35]", "result": "14.9 µM (inactive)"}, {"measurement": "GI50", "setting": "[36]", "result": "49.1 µM (inactive)"}, {"measurement": "GI50", "setting": "[37]", "result": "40.6 µM (inactive)"}, {"measurement": "GI50", "setting": "[38]", "result": "25.3 µM (inactive)"}, {"measurement": "GI50", "setting": "[39]", "result": 24.5, "unit": "µM"}, {"measurement": "GI50", "setting": "[40]", "result": "22.4 µM (inactive)"}, {"measurement": "GI50", "setting": "[41]", "result": "27.9 µM (inactive)"}, {"measurement": "GI50", "setting": "[42]", "result": "19.4 µM (inactive)"}, {"measurement": "GI50", "setting": "[43]", "result": "82 µM (inactive)"}, {"measurement": "GI50", "setting": "[44]", "result": "17 µM (inactive)"}, {"measurement": "GI50", "setting": "[45]", "result": "27.1 µM (inactive)"}, {"measurement": "GI50", "setting": "[46]", "result": "33.8 µM (inactive)"}, {"measurement": "GI50", "setting": "[47]", "result": "26.3 µM (inactive)"}]}
{"smiles": "Cc1ccc(S(=O)(=O)N2CCCCC2CCO)cc1", "note": "(configuration not stated)", "values": [{"measurement": "GI50", "setting": "[1]", "result": "> 100 µM (inactive)"}, {"measurement": "GI50", "setting": "[2]", "result": "> 100 µM (inactive)"}, {"measurement": "GI50", "setting": "[3]", "result": "> 100 µM (inactive)"}, {"measurement": "GI50", "setting": "[4]", "result": "> 100 µM (inactive)"}, {"measurement": "GI50", "setting": "[48]", "result": "> 100 µM (inactive)"}, {"measurement": "GI50", "setting": "[49]", "result": "> 100 µM (inactive)"}, {"measurement": "GI50", "setting": "[5]", "result": "> 100 µM (inactive)"}, {"measurement": "GI50", "setting": "[6]", "result": "> 100 µM (inactive)"}, {"measurement": "GI50", "setting": "[7]", "result": "> 100 µM (inactive)"}, {"measurement": "GI50", "setting": "[8]", "result": "> 100 µM (inactive)"}, {"measurement": "GI50", "setting": "[9]", "result": "> 100 µM (inactive)"}, {"measurement": "GI50", "setting": "[10]", "result": "> 100 µM (inactive)"}, {"measurement": "GI50", "setting": "[11]", "result": "> 100 µM (inactive)"}, {"measurement": "GI50", "setting": "[50]", "result": "> 100 µM (inactive)"}, {"measurement": "GI50", "setting": "[13]", "result": "> 100 µM (inactive)"}, {"measurement": "GI50", "setting": "[14]", "result": "> 100 µM (inactive)"}, {"measurement": "GI50", "setting": "[15]", "result": "> 100 µM (inactive)"}, {"measurement": "GI50", "setting": "[16]", "result": "> 100 µM (inactive)"}, {"measurement": "GI50", "setting": "[17]", "result": "> 100 µM (inactive)"}, {"measurement": "GI50", "setting": "[18]", "result": "> 100 µM (inactive)"}, {"measurement": "GI50", "setting": "[19]", "result": "> 100 µM (inactive)"}, {"measurement": "GI50", "setting": "[20]", "result": "> 100 µM (inactive)"}, {"measurement": "GI50", "setting": "[21]", "result": "> 100 µM (inactive)"}, {"measurement": "GI50", "setting": "[22]", "result": "> 100 µM (inactive)"}, {"measurement": "GI50", "setting": "[23]", "result": "> 100 µM (inactive)"}, {"measurement": "GI50", "setting": "[51]", "result": "> 100 µM (inactive)"}, {"measurement": "GI50", "setting": "[24]", "result": "> 100 µM (inactive)"}, {"measurement": "GI50", "setting": "[25]", "result": "> 100 µM (inactive)"}, {"measurement": "GI50", "setting": "[26]", "result": "> 100 µM (inactive)"}, {"measurement": "GI50", "setting": "[27]", "result": "> 100 µM (inactive)"}, {"measurement": "GI50", "setting": "[28]", "result": "> 100 µM (inactive)"}, {"measurement": "GI50", "setting": "[29]", "result": "> 100 µM (inactive)"}, {"measurement": "GI50", "setting": "[30]", "result": "> 100 µM (inactive)"}, {"measurement": "GI50", "setting": "[31]", "result": "> 100 µM (inactive)"}, {"measurement": "GI50", "setting": "[52]", "result": "0.0342 µM (active)"}, {"measurement": "GI50", "setting": "[32]", "result": "> 100 µM (inactive)"}, {"measurement": "GI50", "setting": "[33]", "result": "> 100 µM (inactive)"}, {"measurement": "GI50", "setting": "[34]", "result": "> 100 µM (inactive)"}, {"measurement": "GI50", "setting": "[35]", "result": "> 100 µM (inactive)"}, {"measurement": "GI50", "setting": "[36]", "result": "> 100 µM (inactive)"}, {"measurement": "GI50", "setting": "[37]", "result": "> 100 µM (inactive)"}, {"measurement": "GI50", "setting": "[38]", "result": "> 100 µM (inactive)"}, {"measurement": "GI50", "setting": "[53]", "result": "> 100 µM (inactive)"}, {"measurement": "GI50", "setting": "[39]", "result": "> 100", "unit": "µM"}, {"measurement": "GI50", "setting": "[40]", "result": "> 100 µM (inactive)"}, {"measurement": "GI50", "setting": "[41]", "result": "> 100 µM (inactive)"}, {"measurement": "GI50", "setting": "[42]", "result": "> 100 µM (inactive)"}, {"measurement": "GI50", "setting": "[43]", "result": "> 100 µM (inactive)"}, {"measurement": "GI50", "setting": "[54]", "result": "> 100 µM (inactive)"}, {"measurement": "GI50", "setting": "[55]", "result": "> 100 µM (inactive)"}, {"measurement": "GI50", "setting": "[56]", "result": "> 100 µM (inactive)"}, {"measurement": "GI50", "setting": "[45]", "result": "> 100 µM (inactive)"}, {"measurement": "GI50", "setting": "[46]", "result": "> 100 µM (inactive)"}, {"measurement": "GI50", "setting": "[47]", "result": "> 100 µM (inactive)"}, {"measurement": "GI50", "setting": "[57]", "result": "> 100 µM (inactive)"}]}
